Data taken from patent publication US9850247B2 (Almac Discovery Limited, priority 2013, dated 2017).

Tests used:
Wee-1 kinase = molecular target: T1, Wee-1 kinase (Homo sapiens, UniProt P30291); test: Measurement of Wee-1 kinase activity (ADP-Glo luminescent kit); format: biochemical
T1 construct: purchased Invitrogen PV3817
Procedure, shortened: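 Activated Wee-1 was pre-incubated 30 min at RT with compound in 40 mM Tris-HCl, 20 mM MgCl2, 0.1 mg/mL BSA and 2 mM DTT. The reaction was started with an aliquot of 2.0 μg/mL poly(Lys,Tyr 4:1) plus 30 μM ATP and run 1 h at RT. ADP-Glo luminescence gave IC50 by non-linear fit.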

[1] = system: phospho-cdc2 (Tyr15) in HT-29 cells; test: Effect on phosphorylation of cdc2 at Tyr15, PathScan ELISA (Method 2); format: cell-based; conditions: Homo sapiens, 8 h, eight hours incubation, read-out: HT29 pCDC2 method 2
Procedure: Method 2: Determining the Effect of Compounds on the phosphorylation of cdc2 at Tyr15
The colorectal cancer cell lines HT-29 and HCT-116 were purchased from the ATCC and routinely maintained in McCoy's Medium (Invitrogen) supplemented with 10% Foetal Calf Serum.
The cells were trypsinised from their growing vessel and counted, 100 μL of cell suspension containing 6000 cells was pipetted into black 96 well Co-star plates and incubated overnight to allow adherence to the surface at a temperature of 37° C. and an atmosphere of 5% CO2. Test compounds were formulated in DMSO and diluted in foetal calf serum supplemented medium. Incubating medium was removed by aspiration and diluted drug supplemented medium added to each well.
The plate was returned to the incubator for an additional eight hours at 37° C. and an atmosphere of 5% CO2. Post incubation, the drug supplemented medium was aspirated from each well and the cells were washed once in ice-cold phosphate buffered saline (PBS). 100 μL of cell lysis buffer (Cell Signalling Technologies #9803) containing 20 mM Tris, 150 mM NaCl, 1 mM EDTA, 1 mM EGTA, 1% Triton-X100, 2.5 mM sodium pyrophosphate, 1 mM glycerophosphate, 1 mM Na3VO4 and 1 μg/mL leupeptin was added to each well of the 96 well plate and incubated at 4° C. for 30 min. The samples on the plate were snap frozen at −80° C. until required. Immediately before the continuation of the assay, the sample plate was thawed and centrifuged at 4° C. for 10 min and the supernatant transferred to secondary tubes or 96 well plate.
Cell supernatant was mixed in a ratio of 1:1 with sample dilutent buffer and vortexed for one minute. 100 μL of diluted sample was pipetted into pre-coated plates containing a rabbit polyclonal antibody for phospho-cdc2 (Tyr15) (Cell Signalling Technologies PathScan kit #7176). The plate was sealed and incubated overnight at 4° C.
The plate seal was removed and the well contents aspirated, followed by 3×5 min washes with 200 μL of diluted wash buffer. Between each wash the plate was tapped firmly onto blotting paper to ensure the removal of all kit solution. 100 μL of kit detection antibody was added to each well and the plate re-sealed and incubated at 37° C. for 1 h. Post incubation the plate was washed and processed in a similar manner to that previously described.
100 μL of horseradish peroxidise-linked secondary antibody was added to each test well, the plate sealed and incubated for thirty minutes at 37° C. Post incubation, the plate was washed as previously stated, followed by the addition of 100 μL of 3,3′,5,5′ tetramethylbenzidine (TMB reagent). The plate was sealed and incubated at RT for 30 min.
100 μL of stop solution was added to each well and the underside of the plate wiped with a lint-free tissue, prior to spectrophotometric determination. Absorbance from each well was read at 450 nm within 30 min of the addition of the stop solution.
The percentage of phospho-cdc2 was calculated compared to DMSO control and plotted versus the concentration of inhibitor using GraphPad Prism. Data was fitted using non-linear regression analysis and IC50 values generated.

T1 sequence (P30291 whole entry): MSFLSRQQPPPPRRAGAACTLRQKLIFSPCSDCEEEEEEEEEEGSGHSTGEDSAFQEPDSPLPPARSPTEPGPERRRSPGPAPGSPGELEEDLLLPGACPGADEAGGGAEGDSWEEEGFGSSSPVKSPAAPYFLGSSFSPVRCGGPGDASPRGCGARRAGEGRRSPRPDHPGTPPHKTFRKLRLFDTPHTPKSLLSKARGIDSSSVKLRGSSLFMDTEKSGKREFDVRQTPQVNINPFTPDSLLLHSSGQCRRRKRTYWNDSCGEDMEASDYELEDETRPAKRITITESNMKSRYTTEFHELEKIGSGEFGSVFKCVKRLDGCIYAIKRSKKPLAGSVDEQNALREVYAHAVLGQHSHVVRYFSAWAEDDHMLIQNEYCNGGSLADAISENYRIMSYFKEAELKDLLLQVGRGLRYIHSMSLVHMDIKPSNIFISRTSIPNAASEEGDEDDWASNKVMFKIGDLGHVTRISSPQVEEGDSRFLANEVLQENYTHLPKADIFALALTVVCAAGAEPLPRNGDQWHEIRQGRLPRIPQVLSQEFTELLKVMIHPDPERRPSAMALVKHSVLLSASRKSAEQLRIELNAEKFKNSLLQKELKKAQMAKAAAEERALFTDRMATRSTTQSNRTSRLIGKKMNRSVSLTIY

IC50 (Wee-1 kinase)	IC50 [1]	SMILES
≤ 10 nM	100 to 1000 nM	CNCCOc1ccc(Nc2ncc3c(n2)N(C)CN(c2c(Cl)cccc2Cl)C3=O)cc1 [Example 2, 3-(2,6-Dichlorophenyl)-1-methyl-7-((4-(2-(methylamino)ethoxy)phenyl)amino)-2,3-dihydropyrimido[4,5-d]pyrimidin-4(1H)-one]
≤ 10 nM	100 to 1000 nM	COc1cc(Nc2ncc3c(n2)N(C)CN(c2c(Cl)cccc2Cl)C3=O)ccc1N1CCNCC1 [Example 3, 3-(2,6-Dichlorophenyl)-7-((3-methoxy-4-(piperazin-1-yl)phenyl)amino)-1-methyl-2,3-dihydropyrimido[4,5-d]pyrimidin-4(1H)-one]
≤ 10 nM	100 to 1000 nM	CN1CN(c2c(Cl)cccc2Cl)C(=O)c2cnc(Nc3ccc(N4CCNCC4)c(C#N)c3)nc21 [Example 11, 3-(2,6-Dichlorophenyl)-7-((3-cyano-4-(piperazin-1-yl)phenyl)amino)-1-methyl-2,3-dihydropyrimido[4,5-d]pyrimidin-4(1H)-one]
≤ 10 nM	100 to 1000 nM	CN1CN(c2c(Cl)cccc2Cl)C(=O)c2cnc(Nc3ccc(N4CCN(C(=O)CN)CC4)cc3)nc21 [Example 13, 7-((4-(4-(2-Aminoacetyl)piperazin-1-yl)phenyl)amino)-3-(2,6-dichlorophenyl)-1-methyl-2,3-dihydropyrimido[4,5-d]pyrimidin-4(1H)-one]
≤ 10 nM	≤ 100 nM	CN1CN(c2c(Cl)cccc2Cl)C(=O)c2cnc(Nc3ccc4c(c3)CNCC4)nc21 [Example 14, 3-(2,6-Dichlorophenyl)-1-methyl-7-((1,2,3,4-tetrahydroisoquinolin-7-yl)amino)-2,3-dihydropyrimido[4,5-d]pyrimidin-4(1H)-one]
≤ 10 nM	≤ 100 nM	[2H]C1([2H])N(C)c2nc(Nc3ccc(N4CCNCC4)cc3)ncc2C(=O)N1c1c(Cl)cccc1Cl [Example 15, 3-(2,6-Dichlorophenyl)-2,2-dideutero-1-methyl-7-((4-(piperazin-1-yl)phenyl)amino)-2,3-dihydropyrimido[4,5-d]pyrimidin-4(1H)-one]
10 to 100 nM	≤ 100 nM	C[C@H]1CN(c2ccc(Nc3ncc4c(n3)N(C)CN(c3c(Cl)cccc3Cl)C4=O)cc2)CCN1 [Example 17, (S)-3-(2,6-Dichlorophenyl)-1-methyl-7-((4-(3-methylpiperazin-1-yl)phenyl)amino)-2,3-dihydropyrimido[4,5-d]pyrimidin-4(1H)-one]
≤ 10 nM	100 to 1000 nM	Cc1cc(Nc2ncc3c(n2)N(C)CN(c2c(Cl)cccc2Cl)C3=O)ccc1C1CCNCC1 [Example 18, 3-(2,6-Dichlorophenyl)-1-methyl-7-((3-methyl-4-(piperidin-4-yl)phenyl)amino)-2,3-dihydropyrimido[4,5-d]pyrimidin-4(1H)-one]
≤ 10 nM	100 to 1000 nM	CN1CN(c2c(Cl)cccc2Cl)C(=O)c2cnc(Nc3ccc(N4CCN[C@@H](CO)C4)cc3)nc21 [Example 19, (R)-3-(2,6-Dichlorophenyl)-7-((4-(3-(hydroxymethyl)piperazin-1-yl)phenyl)amino)-1-methyl-2,3-dihydropyrimido[4,5-d]pyrimidin-4(1H)-one]
10 to 100 nM	≤ 100 nM	CC(C)N1CCN(c2ccc(Nc3ncc4c(n3)N(C)CN(c3c(Cl)cccc3Cl)C4=O)cc2CO)CC1 [Example 21, 3-(2,6-Dichlorophenyl)-7-((3-(hydroxymethyl)-4-(4-isopropylpiperazin-1-yl)phenyl)amino)-1-methyl-2,3-dihydropyrimido[4,5-d]pyrimidin-4(1H)-one]
≤ 10 nM	≤ 100 nM	CN1CCc2ccc(Nc3ncc4c(n3)N(C)CN(c3c(Cl)cccc3Cl)C4=O)cc2C1 [Example 22, 3-(2,6-Dichlorophenyl)-1-methyl-7-((2-methyl-1,2,3,4-tetrahydroisoquinolin-7-yl)amino)-2,3-dihydropyrimido[4,5-d]pyrimidin-4(1H)-one]
10 to 100 nM	≤ 100 nM	CN1CN(c2c(F)cccc2Cl)C(=O)c2cnc(Nc3ccc(N4CCNCC4)cc3)nc21 [Example 25, 3-(2-Chloro-6-fluorophenyl)-1-methyl-7-((4-(piperazin-1-yl)phenyl)amino)-2,3-dihydropyrimido[4,5-d]pyrimidin-4(1H)-one]
10 to 100 nM	100 to 1000 nM	COCc1cc(Nc2ncc3c(n2)N(C)CN(c2c(Cl)cccc2Cl)C3=O)ccc1N1CCNCC1 [Example 31, 3-(2,6-dichlorophenyl)-7-((3-(methoxymethyl)-4-(piperazin-1-yl)phenyl)amino)-1-methyl-2,3-dihydropyrimido[4,5-d]pyrimidin-4(1H)-one]
≤ 10 nM	≤ 100 nM	C[C@@H]1CN[C@@H](C)CN1c1ccc(Nc2ncc3c(n2)N(C)CN(c2c(Cl)cccc2Cl)C3=O)cc1 [Example 40, 3-(2,6-dichlorophenyl)-7-((4-((2R,5S)-2,5-dimethylpiperazin-1-yl)phenyl)amino)-1-methyl-2,3-dihydropyrimido[4,5-d]pyrimidin-4(1H)-one]
≤ 10 nM	100 to 1000 nM	C[C@@H]1CN(c2ccc(Nc3ncc4c(n3)N(C)CN(c3c(Cl)cccc3Cl)C4=O)cc2F)CCN1 [Example 43, (R)-3-(2,6-dichlorophenyl)-7-((3-fluoro-4-(3-methylpiperazin-1-yl)phenyl)amino)-1-methyl-2,3-dihydropyrimido[4,5-d]pyrimidin-4(1H)-one]
10 to 100 nM	≤ 100 nM	C[C@@H]1CN(c2ccc(Nc3ncc4c(n3)N(C)CN(c3c(F)cccc3Cl)C4=O)cc2)CCN1 [Example 53, (R)-3-(2-chloro-6-fluorophenyl)-1-methyl-7-((4-(3-methylpiperazin-1-yl)phenyl)amino)-2,3-dihydropyrimido[4,5-d]pyrimidin-4(1H)-one]
10 to 100 nM	100 to 1000 nM	COCc1cc(Nc2ncc3c(n2)N(C)CN(c2c(Cl)cccc2Cl)C3=O)ccc1N1CCN[C@H](C)C1 [Example 59, (R)-3-(2,6-dichlorophenyl)-7-((3-(methoxymethyl)-4-(3-methylpiperazin-1-yl)phenyl)amino)-1-methyl-2,3-dihydropyrimido[4,5-d]pyrimidin-4(1H)-one]
10 to 100 nM	≤ 100 nM	COC[C@H]1CN(c2ccc(Nc3ncc4c(n3)N(C)CN(c3c(Cl)cccc3Cl)C4=O)cc2)CCN1 [Example 60, (R)-3-(2,6-dichlorophenyl)-7-((4-(3-(methoxymethyl)piperazin-1-yl)phenyl)amino)-1-methyl-2,3-dihydropyrimido[4,5-d]pyrimidin-4(1H)-one]
≤ 10 nM	≤ 100 nM	C[C@@H]1CN(c2ccc(Nc3ncc4c(n3)N(C)CN(c3c(Cl)cccc3Cl)C4=O)cc2)[C@@H](C)CN1 [Example 80, 3-(2,6-dichlorophenyl)-7-((4-((2S,5R)-2,5-dimethylpiperazin-1-yl)phenyl)amino)-1-methyl-2,3-dihydropyrimido[4,5-d]pyrimidin-4(1H)-one]

SMILES	IC50 (Wee-1 kinase)	IC50 [1]
CN1CN(c2c(Cl)cccc2Cl)C(=O)c2cnc(Nc3ccc(N4CC5CCC(C4)N5)cc3)nc21 [Example 74, 7-((4-(3,8-diazabicyclo[3.2.1]octan-3-yl)phenyl)amino)-3-(2,6-dichlorophenyl)-1-methyl-2,3-dihydropyrimido [4,5-d]pyrimidin-4(1H)-one]	10 to 100 nM	100 to 1000 nM
CN1CN(c2c(Cl)cccc2Cl)C(=O)c2cnc(Nc3ccc(N4CC5CCC(C4)N5C)c(CO)c3)nc21 [Example 86, 3-(2,6-dichlorophenyl)-7-((3-(hydroxymethyl)-4-(8-methyl-3,8-diazabicyclo[3.2.1]octan-3-yl)phenyl)amino)-1-methyl-2,3-dihydropyrimido[4,5-d]pyrimidin-4(1H)-one]	≤ 10 nM	≤ 100 nM
